Seven molecules from patent US4680304A, “Feed compositions containing 2-(α-pyridyl)-Δ^2 -heterocyclic compounds” (SmithKline Beckman Corporation, priority 1985, dated 1987) can be followed below.

Where “and” joins values, the source holds several entries; their conditions need not be identical. Equal entries are not always repeated.

A short description of one assay: Chick growth study. The format is in vivo, broiler chicks. As for the experimental part:
512 day old broiler chicks, selected for weight, health and sex, are housed in an environmentally controlled room with temperature at 37.7° and humidity at 40%. Chicks are fed ad libitum. Water is offered ad libitum. A corn or, preferably rye, basal ration is fed during the acclimation period (days 1 and 2). It is, then, mixed with the compound under test or used as a control on days 3-17. Either 8 or 16 chicks are used for each test or control group.

Assay [1] relates to fermentation in the digestive tract (swine ileal/cecal inoculum). Put plainly: In vitro swine procedure (fistula test; incubation of filtered ileal/cecal inoculum). Details: species or system swine (Yorkshire barrow). Particulars: 5 hours at 37°.

For the molecule `Cc1nc(-c2ccccn2)no1`, in the assay “Chick growth study” (8.5 ppm in feed), the “Feed/Gain (3-17 day)” value is listed as 99.2 % of Control and the “Weight (17 day)” value is recorded as 102.3 % of Control. For the same molecule, in assay [1] (166.67 ppm), the “GLU (glucose)” value is 113 % of control values and the “LYS (lysine)” value is reported as 110 % of control values.
Regarding `c1ccc(C2=NCCN2)nc1` [2-(2-Pyridyl)-imidazoline], in “Chick growth study” (50 ppm in feed), the “Feed/Gain (3-17 day)” value is on record as 93.0 % of Control and the “Weight (17 day)” value was 106.2 % of Control.
As to `NC(=NO)c1ccccn1` [2-Amidoximopyridine], in “Chick growth study” (10 ppm in feed), the “Feed/Gain (3-17 day)” value is 97.0 % of Control and 101.2 % of Control; the “Weight (17 day)” value was 108.5 % of Control and 99.2 % of Control. Also, in the assay “Chick growth study” (50 ppm in feed), the “Feed/Gain (3-17 day)” value is reported as 97.3 % of Control and the “Weight (17 day)” value is given as 103.0 % of Control. For the same molecule, in assay [1] (166.67 ppm), the “LAC (L-lactic acid)” value is listed as 111 % of control values, the “LYS (lysine)” value was 99 % of control values and the “VFA (total of volatile fatty acids)” value is 98 % of control values.
`CC1(O)CC(C(N)=O)N=C1c1ncccc1O` (stereo not shown) [3,4-dihydro-4-hydroxy-5-(3-hydroxy-2-pyridinyl)-4-methyl-2H-pyrrole-2-carboxamide]: the “Feed/Gain (3-17 day)” value is 98.4 % of Control in the assay “Chick growth study” (4.5 ppm in feed); 92.6 % of Control and 99.9 % of Control in the assay “Chick growth study” (25 ppm in feed). Also, the “Weight (17 day)” value in “Chick growth study” (4.5 ppm in feed) is 101.0 % of Control; in “Chick growth study” (25 ppm in feed), 109.4 % of Control and 108.5 % of Control. The “LYS (lysine)” value is recorded as 75 % of control values in assay [1] (1.67 ppm); 82 % of control values in assay [1] (16.67 ppm); 136 % of control values in assay [1] (entry (a), 166.7 ppm); 142 % of control values in assay [1] (entry (b), 166.7 ppm). Further, the “VFA (total of volatile fatty acids)” value in assay [1] (16.67 ppm) is recorded as 103 % of control values; in assay [1] (entry (a), 166.7 ppm), 26 % of control values; in assay [1] (entry (b), 166.7 ppm), 43 % of control values.
In the case of `CC1(C)NN=C(c2ccccn2)N1` [5,5-Dimethyl-3-(2'-pyridyl)-4,5-dihydro-1H-triazole], the “Feed/Gain (3-17 day)” value in the assay “Chick growth study” (9 ppm in feed) is listed as 97.2 % of Control; in “Chick growth study” (50 ppm in feed), 103.1 % of Control. For the same molecule, the “Weight (17 day)” value in “Chick growth study” (9 ppm in feed) is reported as 103.5 % of Control; in “Chick growth study” (50 ppm in feed), 97.7 % of Control. Besides, the “GLU (glucose)” value in assay [1] (166.67 ppm) is on record as 105 % of control values.
In the case of `COC(=O)C1(C)NN=C(c2ccccn2)N1` (stereo not shown) [Methyl 5-methyl-3-(2'-pyridyl)-4,5-dihydro-1H-triazole-5-carboxylate], in “Chick growth study” (50 ppm in feed), the “Feed/Gain (3-17 day)” value is 91.0 % of Control and the “Weight (17 day)” value was 108.1 % of Control.
In the case of Virginiamycin [reference compound], the “Feed/Gain (3-17 day)” value in “Chick growth study” (10 ppm in feed (rye)) is 96.5 % of Control; in “Chick growth study” (10 ppm in feed), 100.4 % of Control; in the assay “Chick growth study” (50 ppm in feed), 88.5 % of Control. For the same molecule, the entries for the “Weight (17 day)” value in the assay “Chick growth study” (10 ppm in feed (rye)), in “Chick growth study” (10 ppm in feed) and in the assay “Chick growth study” (50 ppm in feed) were 107.1 % of Control, 97.7 % of Control and 127.8 % of Control, respectively. In addition, the results for the “GLU (glucose)” value in assay [1] (1.67 ppm), in assay [1] (16.67 ppm) and in assay [1] (166.67 ppm) were 131 % of control values, 153 % of control values and 153 % of control values, respectively. Further, the entries for the “LYS (lysine)” value in assay [1] (1.67 ppm), in assay [1] (16.67 ppm) and in assay [1] (166.67 ppm) were 134 % of control values, 212 % of control values and 289 % of control values, respectively. The “VFA (total of volatile fatty acids)” value in assay [1] (1.67 ppm) is 147 % of control values; in assay [1] (16.67 ppm), 85 % of control values; in assay [1] (166.67 ppm), 39 % of control values.
